Test results from patent US9409122B2, “Gas capture process” (Commonwealth Scientific and Industrial Research Organisation, priority 2011, dated 2016).

Experiment: CO2 desorption at 90° C.
Format: physicochemical
Method: The test results (shown in the accompanying figures) are a comparison of four compounds within general formula (I) with 4-aminopiperidine in terms of their CO2 absorption at 40° C. (FIG. 2(a)) and CO2 desorption at 90° C. (FIG. 2(b)). These absorption experiments were carried with CO2 gas (99%).
In FIG. 3, CO2 absorption and desorption results for Compounds 1 to 4 and 4-aminopiperidine (2M and 1.7M in one case due to the material availability) were compared with MEA (4M) and piperazine (Pz) (2M). An MEA concentration of 4M was chosen in this comparison to match the total amine/nitrogen concentration of diamines (2×2M).

In the case of `C1CNCCN1` [Pz, piperazine], the stability of carbamate is reported as “reasonably stable”.
